Experimental data reported in EPA's ToxRefDB 2.

Experiments:
rat [1] = settings: Prenatal developmental toxicity study, sprague dawley, Oral, Gavage/Intubation, dose end: 15 GD
rabbit [2] = settings: Prenatal developmental toxicity study, new zealand white, Oral, Gavage/Intubation, dose end: 18 GD, group: maternal
dog [3] = settings: Subchronic oral toxicity in nonrodent, beagle, Feed, dose end: 90 day, group: systemic
rat [4] = settings: Subchronic oral toxicity in rodents, wistar, Feed, dose end: 90 day, group: systemic
rat [5] = settings: Carcinogenicity, wistar, Oral, Feed, dose end: 104 week, group: systemic
dog [6] = settings: Chronic toxicity, beagle, Oral, Feed, dose end: 12 month, group: systemic
mouse = settings: Carcinogenicity, b6c3f1, Oral, [Not Specified], dose end: 78 week, group: systemic
rat [7] = settings: Chronic toxicity, wistar, Oral, Feed, dose end: 104 week, group: systemic
rabbit [8] = settings: Prenatal developmental toxicity study, himalayan, Oral, Gavage/Intubation, dose end: 19 GD
rat [9] = settings: Peri- and post-natal toxicity study (Segment III), sprague dawley, Oral, Gavage/Intubation, dose end: 54 PND
rat [10] = settings: Other (NonGuideline or Guideline Not Listed), sprague dawley, Oral, Gavage/Intubation, dose end: 20 PND, group: cannot be grouped
[11] = group: developmental, developmental / developmental malformation / bone / incomplete ossification + developmental / developmental malformation / bone / unossified
[12] = group: maternal, systemic / in life observation / clinical signs / salivation + systemic / in life observation / mortality / mortality + systemic / in life …
[13] = reproductive / reproductive performance / implantations / implantations + systemic / in life observation / body weight / body weight gain + …
[14] = systemic / organ weight / liver / relative to body weight + systemic / pathology microscopic / spleen / hemosiderosis + systemic / …
[15] = systemic / clinical chemistry / albumin / albumin + systemic / clinical chemistry / protein / protein
[16] = systemic / organ weight / liver / absolute + systemic / organ weight / liver / relative to body weight + systemic / pathology microscopic / …
[17] = systemic / pathology gross / lymph node / enlarged + systemic / pathology gross / spleen / enlarged + systemic / pathology microscopic / …
[18] = systemic / organ weight / liver / relative to body weight + systemic / pathology microscopic / liver / hemosiderosis + systemic / clinical …
[19] = systemic / organ weight / kidney / absolute
[20] = systemic / clinical chemistry / cholesterol / cholesterol
[21] = systemic / clinical chemistry / cholesterol / cholesterol + systemic / in life observation / body weight / body weight + systemic / in life …
[22] = group: developmental, developmental / developmental malformation / bone / full supernumerary + developmental / developmental malformation / bone / fused + …
[23] = group: maternal, systemic / in life observation / body weight / body weight gain + systemic / in life observation / food consumption / food efficiency + …
[24] = group: developmental, developmental / developmental landmark / preputial separation / preputial separation
[25] = group: parental, systemic / organ weight / [other] / absolute + systemic / organ weight / adrenal gland / absolute + systemic / organ weight / epididymis / …
[26] = developmental / developmental landmark / preputial separation / preputial separation
[27] = developmental / developmental malformation / general / [other] + developmental / developmental malformation / penis / [other] + …

Q: Which results are given for `CCN(CC)CC.O=C(O)COc1nc(Cl)c(Cl)cc1Cl` [Triclopyr triethylamine salt]?
A: LEL (rat [1]; [11]): 300 mg/kg/day; LOAEL (rat [1]; [11]): 300 mg/kg/day; NEL (rat [1]; [11]): 100 mg/kg/day; NOAEL (rat [1]; [11]): 100 mg/kg/day; LOAEL (rat [1]; group: maternal, systemic / in life observation / clinical signs / salivation + systemic / in life observation / mortality / mortality): 300 mg/kg/day; NEL (rat [1]; [12]): 30 mg/kg/day; NOAEL (rat [1]; [12]): 100 mg/kg/day; LEL (rat [1]; group: maternal, systemic / in life observation / water consumption / water consumption): 100 mg/kg/day; LOAEL (rabbit [2]; [13]): 100 mg/kg/day; NEL (rabbit [2]; [13]): 10 mg/kg/day; NOAEL (rabbit [2]; [13]): 30 mg/kg/day; LEL (rabbit [2]; reproductive / reproductive performance / preimplantation loss / preimplantation loss): 30 mg/kg/day

Q: What does the source list for `CN1CSC(=S)N(C)C1` [Dazomet]?
A: LOAEL (dog [3]; systemic / organ weight / liver / relative to body weight + systemic / pathology microscopic / spleen / hemosiderosis): 7.25 mg/kg/day; LEL (dog [3]; [14]): 7.25 mg/kg/day; NEL (dog [3]; [14]): 3.5 mg/kg/day; NOAEL (dog [3]; [14]): 3.5 mg/kg/day; LEL (rat [4]; [15]): 1.7 mg/kg/day; NEL (rat [4]; [15]): < 1.7 mg/kg/day; LOAEL (rat [4]; [16]): 4.5 mg/kg/day; NOAEL (rat [4]; [16]): 1.5 mg/kg/day; LEL (rat [5]; systemic / pathology gross / lymph node / enlarged + systemic / pathology gross / spleen / enlarged): 0.9 mg/kg/day; LOAEL (rat [5]; [17]): > 3.71 mg/kg/day; NEL (rat [5]; [17]): 0.2 mg/kg/day; NOAEL (rat [5]; [17]): ≥ 3.71 mg/kg/day; LOAEL (dog [6]; systemic / organ weight / liver / relative to body weight + systemic / pathology microscopic / liver / hemosiderosis): 1.12 mg/kg/day; LEL (dog [6]; [18]): 1.12 mg/kg/day; NEL (dog [6]; [18]): 0.35 mg/kg/day; NOAEL (dog [6]; [18]): 0.35 mg/kg/day; LEL (mouse; [19]): 3.9 mg/kg/day; NEL (mouse; [19]): < 3.9 mg/kg/day; LOAEL (mouse; systemic / pathology microscopic / liver / adenoma): 15.6 mg/kg/day; NOAEL (mouse; systemic / pathology microscopic / liver / adenoma + systemic / in life observation / body weight / body weight + systemic / in life …): 3.9 mg/kg/day; LEL (rat [7]; [20]): 3.81 mg/kg/day; LOAEL (rat [7]; [20]): 3.81 mg/kg/day; NEL (rat [7]; [21]): 0.94 mg/kg/day; NOAEL (rat [7]; [21]): 0.94 mg/kg/day; LEL (rabbit [8]; [22]): 45 mg/kg/day; LOAEL (rabbit [8]; [22]): 45 mg/kg/day; NEL (rabbit [8]; [22]): 15 mg/kg/day; NOAEL (rabbit [8]; [22]): 15 mg/kg/day; LOAEL (rabbit [8]; group: maternal, systemic / in life observation / body weight / body weight gain + systemic / in life observation / food consumption / food efficiency): 45 mg/kg/day; LEL (rabbit [8]; [23]): 45 mg/kg/day; NEL (rabbit [8]; [23]): 15 mg/kg/day; NOAEL (rabbit [8]; [23]): 15 mg/kg/day

Q: How did the LEL (rat [9]; [24]) turn out when `CC(C)C(=O)Nc1ccc([N+](=O)[O-])c(C(F)(F)F)c1` [Flutamide] was run?
A: 25 mg/kg/day

Q: And the LOAEL (rat [9]; [24])?
A: > 50 mg/kg/day

Q: What about the NEL (rat [9]; [24]) of the same molecule?
A: < 25 mg/kg/day

Q: And the NOAEL (rat [9]; [24])?
A: ≥ 50 mg/kg/day

Q: And the LEL (rat [9]; [25])?
A: 25 mg/kg/day

Q: What about the LOAEL (rat [9]; [25]) of the same molecule?
A: > 50 mg/kg/day

Q: And the NEL (rat [9]; [25])?
A: < 25 mg/kg/day

Q: And the NOAEL (rat [9]; [25])?
A: ≥ 50 mg/kg/day

Q: What about the LEL (rat [10]; [26]) of the same molecule?
A: 0.4 mg/kg/day

Q: And the NEL (rat [10]; [26])?
A: < 0.4 mg/kg/day

Q: What about the LOAEL (rat [10]; [27]) of the same molecule?
A: > 10 mg/kg/day

Q: What about the NOAEL (rat [10]; [27]) of the same molecule?
A: ≥ 10 mg/kg/day
